{"source": "patent US6057117A", "about": "“Identification and use of selective inhibitors of glycogen synthase kinase 3” (Chiron Corporation, priority 1999, dated 2000)", "assay_type_in_all_cases": "cell-based", "key": {"HepG2 liver cells [1]": {"tested_on": "HepG2 liver cells", "assay": "Glucose uptake in stable tissue culture cells", "excerpt": "(§1) In these assays measurement of the effectiveness of a given inhibitor is accomplished by the effect of inhibitors on glycogen synthase activity as described in Thomas et al, Anal. Biochem. 25:486-99 (1968), glucose uptake as described in Begun and Ragolia Endocrinology 137: 2441-6 (1996), Claraldi et al, J. Clin. Invest. 96:2820-27 (1995), Hara et al, PNAS 91:7415-19 (1994), Robinson and James, Am. J. Physiol. 263:E383-93(1992), and Sasoaka et al, JBC 270: 10885-92 (1995) and glucose incorporation into glycogen as described in Begun and Ragolia Endocrinology 137: 2441-6 (1996), Sasoaka et al, JBC 270: 10885-92 (1995), and Takata et al, JBC 267:9065-70 (1992).\n(§2) Assays for glucose uptake and glycogen synthesis can be conducted as described for cell-based assays generally. To measure glucose uptake and glycogen synthesis, a variety of stable tissue culture cell lines that respond to insulin stimulation by increasing the synthesis of glycogen and increasing the rate of glucose uptake from the medium can be used. These include HepG2 liver cells, CHO-IR cells, and Hirc cells. Under appropriate conditions the addition of insulin and glucose to HepG2 cells stimulates glycogen synthase activity and this stimulation is potentiated in the presence of the GSK3 inhibitor iodotubercidin."}, "HepG2 liver cells [2]": {"tested_on": "HepG2 liver cells", "assay": "Insulin- and glucose-stimulated glycogen synthase activity in stable tissue culture cells", "settings": "insulin and glucose added, in the presence of the inhibitor", "excerpt": "as §1, §2"}, "Drosophila cells": {"tested_on": "Drosophila cells", "assay": "β-catenin stabilization assay of intracellular GSK3 activity (western blot)", "settings": "added to Drosophila cells; detected on a western blot", "excerpt": "Other assays that test functional GSK3 also provide a further test of intracellular GSK3 activity. These assays rely on the ability to observe indirect consequences of GSK3 activity within cells. An example of such an assay involves β-catenin stabilization. Cellular GSK3 activity leads to the destabilization of cytosolic pools of β-catenin in certain types of cell. Consequently, inhibition of GSK3 results in β-catenin stabilization and accumulation, which can be detected on a western blot. […] Similarly, LiCl in the cell culture medium causes an increase in intracellular β-catenin levels as described in Stambolic et al, Cur. Biol. 6(12):1664-8 (1996)."}}, "data": [{"smiles": "Nc1ncnc2c1c(I)cn2[C@@H]1O[C@H](CO)[C@@H](O)[C@H]1O", "note": "[iodotubercidin]", "values": [{"measurement": "response of glucose uptake to insulin, glucose and inhibitor", "setting": "HepG2 liver cells [1]", "result": "as much as six fold"}, {"measurement": "stimulation of glycogen synthase activity by insulin and glucose", "setting": "HepG2 liver cells [2]", "result": "potentiated"}, {"measurement": "β-catenin accumulation", "setting": "Drosophila cells", "result": "leads to β-catenin accumulation"}]}]}
